For one test, the target named is T1, human CB2 receptors (Homo sapiens, UniProt P34972).
T1 construct: expressed in transfected cells; host or cells: CHO cells
Nature of the test: functional cAMP assay, CHO cells expressing human CB2. It is filed as cell-based. How it is done:
The growth medium was exchanged with Krebs Ringer Bicarbonate buffer with 1 mM IBMX and incubated at 30° C. for 30 min. Compounds were added to a final assay volume of 100 μl and incubated for 30 min at 30° C. […] The time-resolved energy transfer is measured by a TRF reader (Evotec Technologies GmbH), equipped with a ND:YAG laser as excitation source. The plate is measured twice with the excitation at 355 nm and at the emission with a delay of 100 ns and a gate of 100 ns, total exposure time 10 s at 730 (bandwidth 30 nm) or 645 nm (bandwidth 75 nm), respectively.
EC50 values were determined using Activity Base analysis (ID Business Solution, Limited).

A further test deals with T2, human CB1 receptors (Homo sapiens, UniProt P21554).
T2 construct: expressed in transfected cells; host or cells: CHO cells
Nature of the test: functional cAMP assay, CHO cells expressing human CB1. The class given is cell-based. As for the experimental part: CHO cells expressing human CB1 or CB2 receptors are seeded 17-24 hours prior to the experiment 50.000 cells per well in a black 96 well plate with flat clear bottom (Corning Costar #3904) in DMEM (Invitrogen No. 31331), 1×HT supplement, with 10% fetal calf serum and incubated at 5% CO2 and 37° C. in a humidified incubator. The growth medium was exchanged with Krebs Ringer Bicarbonate buffer with 1 mM IBMX and incubated at 30° C. for 30 min. Compounds were added to a final assay volume of 100 μl and incubated for 30 min at 30° C. Using the cAMP-Nano-TRF detection kit the assay (Roche Diagnostics) was stopped by the addition of 50 μl lysis reagent (Tris, NaCl, 1.5% Triton X100, 2.5% NP40, 10% NaN3) and 50 μl detection solutions (20 μM mAb Alexa700-cAMP 1:1, and 48 μM Ruthenium-2-AHA-cAMP) and shaken for 2 h at room temperature. The time-resolved energy transfer is measured by a TRF reader (Evotec Technologies GmbH), equipped with a ND:YAG laser as excitation source. The plate is measured twice with the excitation at 355 nm and at the emission with a delay of 100 ns and a gate of 100 ns, total exposure time 10 s at 730 (bandwidth 30 nm) or 645 nm (bandwidth 75 nm), respectively. The FRET signal is calculated as follows: FRET=T730-Alexa730-P(T645-B645) with P=Ru730-B730/Ru645-B645, where T730 is the test well measured at 730 nM, T645 is the test well measured at 645 nm, B730 and B645 are the buffer controls at 730 nm and 645 nm, respectively. cAMP content is determined from the function of a standard curve spanning from 10 μM to 0.1 nM cAMP.
EC50 values were determined using Activity Base analysis (ID Business Solution, Limited). The EC50 values for a wide range of cannabinoid agonists generated from this assay were in agreement with the values published in the scientific literature.
On the technique in general: Changes in cAMP serve as a functional read-out for many G protein-coupled receptors.

Where [1] appears, read: CHO cells expressing human CB2, read-out: Ec50:CB2 - hu cAMP.
The mark [2] stands for this setting: CHO cells expressing human CB1, read-out: Ec50:CB1 - hu cAMP.

SMILES strings stand for the structures. Like-named read-outs stand apart in the source and are kept apart here.

T2 sequence (P21554 whole entry): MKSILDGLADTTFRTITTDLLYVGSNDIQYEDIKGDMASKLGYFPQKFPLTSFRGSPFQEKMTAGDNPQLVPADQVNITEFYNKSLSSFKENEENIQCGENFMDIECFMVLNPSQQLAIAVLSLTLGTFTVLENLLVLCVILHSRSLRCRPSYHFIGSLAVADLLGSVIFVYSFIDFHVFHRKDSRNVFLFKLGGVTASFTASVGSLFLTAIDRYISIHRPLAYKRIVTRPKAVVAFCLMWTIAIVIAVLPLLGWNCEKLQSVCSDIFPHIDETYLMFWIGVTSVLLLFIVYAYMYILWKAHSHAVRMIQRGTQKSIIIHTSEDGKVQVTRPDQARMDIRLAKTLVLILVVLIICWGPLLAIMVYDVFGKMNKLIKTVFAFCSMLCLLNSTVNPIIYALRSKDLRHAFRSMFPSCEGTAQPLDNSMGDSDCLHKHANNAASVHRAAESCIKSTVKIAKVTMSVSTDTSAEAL
T1 sequence (P34972 whole entry): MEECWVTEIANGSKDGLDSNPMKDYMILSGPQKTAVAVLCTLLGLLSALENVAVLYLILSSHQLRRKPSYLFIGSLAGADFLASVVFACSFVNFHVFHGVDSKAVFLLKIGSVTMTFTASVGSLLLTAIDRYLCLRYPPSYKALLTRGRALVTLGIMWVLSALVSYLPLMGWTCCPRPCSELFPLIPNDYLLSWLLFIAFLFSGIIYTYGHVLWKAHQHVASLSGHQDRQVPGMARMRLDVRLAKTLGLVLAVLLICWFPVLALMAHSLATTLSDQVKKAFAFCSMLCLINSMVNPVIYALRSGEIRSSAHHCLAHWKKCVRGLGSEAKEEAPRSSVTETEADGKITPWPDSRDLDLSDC

Broadly, the EC50 is the concentration at which the effect is half-maximal. Consider `Cc1cccc2c1N(C(=O)C13CC4CC(CC(C4)C1)C3)CCC2` [Example 8, Adamantan-1-yl-(8-methyl-3,4-dihydro-2H-quinolin-1-yl)-methanone], for which the EC50 at human CB2 receptors (setting [1]) was 277 nM; at human CB1 receptors (setting [2]) it was above 10000 nM.
Consider `O=C(N1CCc2ccccc21)C12CC3CC(CC(O)(C3)C1)C2` [Example 41, (2,3-Dihydro-indol-1-yl)-(3-hydroxy-adamantan-1-yl)-methanone], for which the EC50 at human CB2 receptors (setting [1]) was 492 nM.
As to `O=C(N1CCCc2ccccc21)C12CC3CC(CC(C3)C1)C2` [Example 2, Adamantan-1-yl-(3,4-dihydro-2H-quinolin-1-yl)-methanone], on human CB2 receptors (setting [1]), the EC50 was 71.6 nM.
On to `COCCOC1CCN(C(=O)C23CC4CC(CC(C4)C2)C3)c2ccccc21` (stereo not drawn) [Example 33, Adamantan-1-yl-[4-(2-methoxy-ethoxy)-3,4-dihydro-2H-quinolin-1-yl]-methanone], for which the EC50 on human CB2 receptors was determined as 21.3 nM.
As to `O=C(N1CCc2cc(Br)ccc21)C12CC3CC(CC(C3)C1)C2` [Example 15, Adamantan-1-yl-(5-bromo-2,3-dihydro-indol-1-yl)-methanone], the EC50 is 11.5 nM at human CB2 receptors and above 10000 nM at human CB1 receptors.
For `CC(C)OC1CCN(C(=O)C23CC4CC(CC(C4)C2)C3)c2ccccc21` (stereo not drawn) [Example 35, Adamantan-1-yl-(4-isopropoxy-3,4-dihydro-2H-quinolin-1-yl)-methanone], the results for the EC50 on human CB2 receptors (setting [1]) and on human CB1 receptors (setting [2]) were 122 nM and above 10000 nM, respectively.
Take `Cc1cccc2c1N(C(=O)C13CC4CC(CC(C4)C1)C3)CC2` [Example 28, Adamantan-1-yl-(7-methyl-2,3-dihydro-indol-1-yl)-methanone]: the half-maximal effective concentration (EC50) on human CB2 receptors is 55.7 nM.
Turning to `O=C(C1[C@H]2C[C@@H]3C[C@@H](C[C@H]1C3)C2)N1CCc2ccccc21` (stereo partly drawn) [Example 37, Adamantan-2-yl-(2,3-dihydro-indol-1-yl)-methanone], the EC50 is 6.7 nM at human CB2 receptors and above 10000 nM at human CB1 receptors.
On to `O=C(N1Cc2ccccc2C1)C12CC3CC(CC(C3)C1)C2` [Example 21, Adamantan-1-yl-(1,3-dihydro-isoindol-2-yl)-methanone], for which, at human CB2 receptors (setting [1]), the EC50 was 19.9 nM.
`O=C(N1CCc2ccc(C(F)(F)F)cc21)C12CC3CC(CC(C3)C1)C2` [Example 17, Adamantan-1-yl-(6-trifluoromethyl-2,3-dihydro-indol-1-yl)-methanone] registered an EC50 on human CB2 receptors of 14.6 nM.
As for `O=C(NC12CC3CC(CC(C3)C1)C2)N1Cc2ccccc2C1` [Example 42, 1,3-Dihydro-isoindole-2-carboxylic acid adamantan-1-ylamide], at human CB2 receptors (setting [1]), the EC50 was 22.1 nM.
Turning to `COc1cccc2c1CCN2C(=O)C12CC3CC(CC(C3)C1)C2` [Example 29, Adamantan-1-yl-(4-methoxy-2,3-dihydro-indol-1-yl)-methanone], the EC50 is 29.6 nM on human CB2 receptors (setting [1]) and above 10000 nM at human CB1 receptors (setting [2]).
Turning to `O=C(N1CCc2c(F)cc(F)cc21)C12CC3CC(CC(C3)C1)C2` [Example 16, Adamantan-1-yl-(4,6-difluoro-2,3-dihydro-indol-1-yl)-methanone], the EC50 at human CB2 receptors is 54 nM; on human CB1 receptors it was above 10000 nM.
In the case of `O=C(N1CCc2cc([N+](=O)[O-])ccc21)C12CC3CC(CC(C3)C1)C2` [Example 14, Adamantan-1-yl-(5-nitro-2,3-dihydro-indol-1-yl)-methanone], the EC50 at human CB2 receptors (setting [1]) was 82 nM; on human CB1 receptors (setting [2]), above 10000 nM.
In the case of `O=C(N1CCC(O)c2ccccc21)C12CC3CC(CC(C3)C1)C2` (stereo not drawn) [Example 9, Adamantan-1-yl-(4-hydroxy-3,4-dihydro-2H-quinolin-1-yl)-methanone], the EC50 on human CB2 receptors (setting [1]) is 265 nM; on human CB1 receptors (setting [2]), above 10000 nM.
For `CC(C)N1CCN(C(=O)C23CC4CC(CC(C4)C2)C3)c2ccccc21` [Example 32, Adamantan-1-yl-(4-isopropyl-3,4-dihydro-2H-quinoxalin-1-yl)-methanone], the EC50 is 6.2 nM at human CB2 receptors and above 10000 nM at human CB1 receptors.
For `Cc1ccc2c(c1)CCN2C(=O)C12CC3CC(CC(C3)C1)C2` [Example 26, Adamantan-1-yl-(5-methyl-2,3-dihydro-indol-1-yl)-methanone], the figures for the EC50 at human CB2 receptors (setting [1]) and on human CB1 receptors (setting [2]) were 10.4 nM and above 10000 nM, respectively.
Turning to `O=C(N1Cc2cc(Cl)c(N3CCOCC3)cc2C1)C12CC3CC(CC(C3)C1)C2` [Example 43, Adamantan-1-yl-(5-chloro-6-morpholin-4-yl-1,3-dihydro-isoindol-2-yl)-methanone], the EC50 was 82.2 nM at human CB2 receptors and above 10000 nM at human CB1 receptors.
In the case of `CC(C)(C)NC(=O)C1CCN(C(=O)C23CC4CC(CC(C4)C2)C3)c2ccccc21` (stereo not drawn) [Example 4, 1-(Adamantane-1-carbonyl)-1,2,3,4-tetrahydro-quinoline-4-carboxylic acid tert-butylamide], the values for the EC50 at human CB2 receptors (setting [1]) and at human CB1 receptors (setting [2]) were 445 nM and above 10000 nM, respectively.
Taken in the same sequence, the figures for `CC1Cc2ccccc2N1C(=O)C12CC3CC(CC(C3)C1)C2` (stereo not drawn) [Example 10, Adamantan-1-yl-(2-methyl-2,3-dihydro-indol-1-yl)-methanone] were 261 nM and above 10000 nM.
On the same counts, the results for `O=C1CCN(C(=O)C23CC4CC(CC(C4)C2)C3)c2ccccc21` [Example 3, 1-(Adamantane-1-carbonyl)-2,3-dihydro-1H-quinolin-4-one] are 330 nM and above 10000 nM.
With `O=C(N1CCc2cc(F)ccc21)C12CC3CC(CC(C3)C1)C2` [Example 18, Adamantan-1-yl-(5-fluoro-2,3-dihydro-indol-1-yl)-methanone], the 50% effective concentration (EC50) on human CB2 receptors (setting [1]) amounted to 4.6 nM.
As for `CC1c2ccccc2N(C(=O)C23C[C@H]4C[C@@H](C2)C[C@@H](C3)C4)C1C` (stereo partly drawn) [Example 25, Adamantan-1-yl-(2,3-dimethyl-2,3-dihydro-indol-1-yl)-methanone], the half-maximal effective concentration (EC50) is 163 nM on human CB2 receptors (setting [1]) and above 10000 nM on human CB1 receptors (setting [2]).
As to `CC1(C)CN(C(=O)C23C[C@H]4C[C@@H](C2)C[C@@H](C3)C4)c2ccccc21` [Example 23, Adamantan-1-yl-(3,3-dimethyl-2,3-dihydro-indol-1-yl)-methanone], the EC50 was 15.9 nM at human CB2 receptors and above 10000 nM at human CB1 receptors.
As for `COC(=O)C1Cc2ccccc2N(C(=O)C23CC4CC(CC(C4)C2)C3)C1` (stereo not drawn) [Example 5, 1-(Adamantane-1-carbonyl)-1,2,3,4-tetrahydro-quinoline-3-carboxylic acid methyl ester], the EC50 was 221 nM at human CB2 receptors (setting [1]) and above 10000 nM on human CB1 receptors (setting [2]).
For `COC1CCN(C(=O)C23CC4CC(CC(C4)C2)C3)c2ccccc21` (stereo not drawn) [Example 36, Adamantan-1-yl-(4-methoxy-3,4-dihydro-2H-quinolin-1-yl)-methanone], the EC50 on human CB2 receptors (setting [1]) was found to be 27.2 nM.
Consider `O=C(N1Cc2cccc(F)c2C1)C12CC3CC(CC(C3)C1)C2` [Example 44, Adamantan-1-yl-(4-fluoro-1,3-dihydro-isoindol-2-yl)-methanone], for which the figures for the EC50 at human CB2 receptors (setting [1]) and on human CB1 receptors (setting [2]) were 58.9 nM and above 10000 nM, respectively.
As for `COc1cccc2c1N(C(=O)C13CC4CC(CC(C4)C1)C3)CC2` [Example 22, Adamantan-1-yl-(7-methoxy-2,3-dihydro-indol-1-yl)-methanone], the EC50 at human CB2 receptors was 26.4 nM; on human CB1 receptors, above 10000 nM.
On the same counts, the results for `COC(=O)c1cccc2c1CCN2C(=O)[C@]12C[C@H]3C[C@H](C[C@H](C3)C1)C2` [Example 24, 1-(Adamantane-1-carbonyl)-2,3-dihydro-1H-indole-4-carboxylic acid methyl ester] are 42.1 nM and above 10000 nM.
For `O=C(N1CCc2cc(F)c(F)cc21)C12CC3CC(CC(C3)C1)C2` [Example 39, Adamantan-1-yl-(5,6-difluoro-2,3-dihydro-indol-1-yl)-methanone], the EC50 on human CB2 receptors (setting [1]) is 17.6 nM; on human CB1 receptors (setting [2]) it was above 10000 nM.
As to `O=C(N1CCc2ccccc21)C12CC3CC(CC(C3)C1)C2` [Example 11, Adamantan-1-yl-(2,3-dihydro-indol-1-yl)-methanone], on human CB2 receptors (setting [1]), the EC50 came to 23.2 nM.
`CCOC1CCN(C(=O)C23CC4CC(CC(C4)C2)C3)c2ccccc21` (stereo not drawn) [Example 12, Adamantan-1-yl-(4-ethoxy-3,4-dihydro-2H-quinolin-1-yl)-methanone]: the EC50 at human CB2 receptors amounted to 18.6 nM.
`Cc1cccc2c1CCN2C(=O)C12CC3CC(CC(C3)C1)C2` [Example 30, Adamantan-1-yl-(4-methyl-2,3-dihydro-indol-1-yl)-methanone]: at human CB2 receptors (setting [1]), the EC50 came to 4.3 nM.

Source of the values: US9090615B2, “Adamantyl derivatives as cannabinoid receptor 2 agonists” (Hoffmann-La Roche Inc., priority 2012, dated 2015).
